A short description of series [1]: Microsomal stability in vitro assay. The class given is in vitro ADME. Particulars: pooled rat liver microsomes, 4 μM compound, NADPH. The method, then:
Pooled rat liver microsomes (BD Biosciences, #452701) were preincubated with test compounds at 37.5° C. for 5 min in the absence of NADPH. The reaction was initiated by addition of NADPH and incubated under the same conditions. The final incubation concentrations were 4 μM test compound, 2 mM NADPH, and 1 mg/mL (total protein) liver microsomes in phosphate-buffered saline (PBS) at pH 7.4. One aliquot (100 μL) of the incubation mixture was withdrawn at 15 min time points and combined immediately with 100 μL of ACN/MeOH. After mixing, the sample was centrifuged at approximately 13000 rpm for 12 min. The supernatant was filtered and transferred into an autosampler vial and the amount of test compound was quantified using a Shimadzu LCMS 2010EV mass spectrometer. The change of the AUC (area under the curve) of the parent compound as a function of time was used as a measure of microsomal stability. Test compounds were run in duplicate with a positive control.

The nature of series [2]: Plasma stability in vitro assay. The class given is in vitro ADME. The settings on record: heparinized rat plasma, 100 μM, 37.5° C. As for the experimental part: A 20 μL aliquot of a 10 mM solution in DMSO of the test compound was added to 2.0 mL of heparinized rat plasma (Lampire, P1-150N) to obtain a 100 μM final solution. The mixture was incubated for 1 h at 37.5° C. Aliquots of 100 μL were taken at 15 min intervals and diluted with 100 μL of MeOH/ACN. After mixing, the sample was centrifuged at approximately 13000 rpm for 12 min. The supernatant was filtered and transferred into an autosampler vial and the amount of test compound was quantified using the Shimadzu LCMS-2010EV system. The change of the AUC of the parent compound in function of time was used as a measure of plasma stability.

A further series has as its target mGlu2 receptor (Rattus norvegicus (Rat), UniProt P31421). The experiment in a line: mGlu2 in vitro GIRK thallium flux assay. Particulars: read-out: mGlu2 EC50 (μM) (60 min); NAM; test compound incubated 60 min before EC80 glutamate; HEK-293 GIRK cells. The series is classed as cell-based. The method, then: All cell culture reagents were purchased from Invitrogen Corp. (Carlsbad, Calif.) unless otherwise noted. Compound activity at the group II (mGlu2 and mGlu3) mGlus was assessed using thallium flux through GIRK channels. Briefly, cells were plated into 384-well, black-walled, clear-bottomed poly-D-lysine-coated plates at a density of 15,000 cells/20 μL/well in DMEM containing 10% dialyzed FBS, 20 mM HEPES, and 100 units/mL penicillin/streptomycin (assay media). Plated cells were incubated overnight at 37° C. in the presence of 5% CO2. […] Cells were incubated for 1 h at room temperature, and the dye exchanged to assay buffer using an ELX405, leaving 20 μL/well. Test compounds were diluted to 2 times their final desired concentration in assay buffer (0.3% DMSO final concentration). […] Cell plates and compound plates were loaded onto a kinetic imaging plate reader (FDSS 6000 or 7000; Hamamatsu Corporation, Bridgewater, N.J.). Appropriate baseline readings were taken (10 images at 1 Hz; excitation, 470±20 nm; emission, 540±30 nm) and test compounds were added in a 20 μL volume and incubated for either 2.5 min or 60 min as indicated before the addition of 10 μL of thallium buffer with or without agonist. After the addition of agonist, data were collected for approximately an additional 2.5 min. Data were analyzed using Excel (Microsoft Corp, Redmond, Wash.). The slope of the fluorescence increase beginning 5 s after thallium/agonist addition and ending 15 s after thallium/agonist addition was calculated, corrected to vehicle and maximal agonist control slope values, and plotted in using either XLfit (ID Business Solutions Ltd) or Prism software (GraphPad Software, San Diego, Calif.) to generate concentration-response curves. Potencies were calculated from fits using a four-point parameter logistic equation. For concentration-response curve experiments, compounds were serially diluted 1:3 into 10 point concentration response curves and were transferred to daughter plates using an Echo acoustic plate reformatter (Labcyte, Sunnyvale, Calif.). Test compounds were applied and followed by EC80 concentrations of glutamate.

Chain of mGlu2 receptor (P31421 19-872): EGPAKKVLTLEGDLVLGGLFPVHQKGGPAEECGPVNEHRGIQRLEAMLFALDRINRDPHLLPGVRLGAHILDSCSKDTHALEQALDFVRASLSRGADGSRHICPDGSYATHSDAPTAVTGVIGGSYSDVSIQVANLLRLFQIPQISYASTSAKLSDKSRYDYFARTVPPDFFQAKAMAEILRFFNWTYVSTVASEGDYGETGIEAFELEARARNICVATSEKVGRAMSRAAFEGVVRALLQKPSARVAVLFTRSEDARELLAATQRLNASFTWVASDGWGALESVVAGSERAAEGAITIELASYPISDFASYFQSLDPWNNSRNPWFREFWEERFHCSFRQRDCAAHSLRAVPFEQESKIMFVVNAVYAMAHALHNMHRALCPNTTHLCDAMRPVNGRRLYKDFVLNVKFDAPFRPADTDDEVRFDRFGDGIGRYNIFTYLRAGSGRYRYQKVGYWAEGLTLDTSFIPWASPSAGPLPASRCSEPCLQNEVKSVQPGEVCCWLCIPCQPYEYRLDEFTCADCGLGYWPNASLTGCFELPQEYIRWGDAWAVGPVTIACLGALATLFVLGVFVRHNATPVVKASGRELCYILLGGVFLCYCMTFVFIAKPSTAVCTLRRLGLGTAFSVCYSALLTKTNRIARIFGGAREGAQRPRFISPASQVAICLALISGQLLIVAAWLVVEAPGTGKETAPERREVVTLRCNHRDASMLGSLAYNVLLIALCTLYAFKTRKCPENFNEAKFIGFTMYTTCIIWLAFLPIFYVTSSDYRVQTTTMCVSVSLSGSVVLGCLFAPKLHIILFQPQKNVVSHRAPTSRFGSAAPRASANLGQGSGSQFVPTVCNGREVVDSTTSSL

With `Cc1cc2c(cc1C(F)(F)F)NC(=O)CC(c1cccc(S(=O)(=O)c3ncccn3)c1)=N2` [Example 137, 7-Methyl-4-(3-(pyrimidin-2-ylsulfonyl)phenyl)-8-(trifluoromethyl)-1H-benzo[b][1,4]diazepin-2(3H)-one], the “Microsomal Stability, Percent Remaining @ 1 hour” value in series [1] amounted to 68%. Also, the “Plasma Stability, Percent Remaining @ 1 hour” value in series [2] is 66%. On to `Cc1cc2c(cc1C(F)(F)F)NC(=O)CC(c1cccc(Sc3ncccn3)c1)=N2` [Example 136, 7-Methyl-4-(3-(pyrimidin-2-ylthio)phenyl)-8-(trifluoromethyl)-1H-benzo[b][1,4]diazepin-2(3H)-one], for which the “Microsomal Stability, Percent Remaining @ 1 hour” value in series [1] was 90%. Further, the “Plasma Stability, Percent Remaining @ 1 hour” value in series [2] worked out at 99%. On to `O=C(O)c1cc(F)cc(-c2cccc(-c3nsc(-c4ccoc4)n3)c2)c1` [Example 43, 5-Fluoro-3′-(5-(furan-3-yl)-1,2,4-thiadiazol-3-yl)biphenyl-3-carboxylic Acid], for which the “Microsomal Stability, Percent Remaining @ 1 hour” value in series [1] is listed as 66%. Moreover, the “Plasma Stability, Percent Remaining @ 1 hour” value in series [2] is reported as 95%. Turning to `O=C(O)c1cc(F)cc(-c2cccc(-c3nc(-c4ccco4)cc(C(F)(F)F)n3)c2)c1` [Example 89, 5-Fluoro-3′-(4-(furan-2-yl)-6-(trifluoromethyl)pyrimidin-2-yl)biphenyl-3-carboxylic Acid], the “Microsomal Stability, Percent Remaining @ 1 hour” value in series [1] was determined as 82%. The “Plasma Stability, Percent Remaining @ 1 hour” value in series [2] is given as 100%.

With `N#Cc1cc(C2=Nc3ccc(C(F)(F)F)cc3NC(=O)C2)ccn1` [Example 184, 4-(2-Oxo-8-(trifluoromethyl)-2,3-dihydro-1H-benzo[b][1,4]diazepin-4-yl)picolinonitrile], in series [1], the “Microsomal Stability, Percent Remaining @ 1 hour” value came out at 97%. Further, the “Plasma Stability, Percent Remaining @ 1 hour” value in series [2] amounted to 100%. Take `Cc1cc2c(cc1C(F)(F)F)NC(=O)CC(c1cccc(Oc3cccc(Br)c3)c1)N2` (single isomer, unassigned) [Example 173B, 4-(3-(3-Bromophenoxy)phenyl)-7-methyl-8-(trifluoromethyl)-4,5-dihydro-1H-benzo[b][1,4]diazepin-2(3H)-one]: the EC50 on mGlu2 receptor is greater than 10 µM. As for `COc1ccc(-c2cc(C(F)(F)F)nc(-c3cccc(-c4ccc(F)c(C(=O)O)c4)c3)n2)cc1` [Example 87, 4-Fluoro-3′-(4-(4-methoxyphenyl)-6-(trifluoromethyl)pyrimidin-2-yl)biphenyl-3-carboxylic Acid], the “Microsomal Stability, Percent Remaining @ 1 hour” value in series [1] is recorded as 92%. Also, the “Plasma Stability, Percent Remaining @ 1 hour” value in series [2] amounted to 97%. `Cc1cc2c(cc1C(F)(F)F)NC(=O)CC(c1cccc(Oc3cccc(C(F)(F)F)c3)c1)N2` (single isomer, unassigned) [Example 172B, 7-Methyl-8-(trifluoromethyl)-4-(3-(3-(trifluoromethyl)phenoxy)phenyl)-4,5-dihydro-1H-benzo[b][1,4]diazepin-2(3H)-one]: the EC50 at mGlu2 receptor is greater than 10 µM.

Turning to `O=C(O)c1cc(-c2cccc(-c3nsc(-c4ccccc4)n3)c2)ccc1F` [Example 38, 4-Fluoro-3′-(5-phenyl-1,2,4-thiadiazol-3-yl)biphenyl-3-carboxylic Acid], the “Microsomal Stability, Percent Remaining @ 1 hour” value in series [1] was found to be 2%. The “Plasma Stability, Percent Remaining @ 1 hour” value in series [2] stood at 65%. On to `O=C(O)c1cc(F)cc(-c2cccc(-c3nc(-c4ccc(C(F)(F)F)nc4)cc(C(F)(F)F)n3)c2)c1` [Example 76, 5-Fluoro-3′-(4-(trifluoromethyl)-6-(6-(trifluoromethyl)pyridin-3-yl)pyrimidin-2-yl)biphenyl-3-carboxylic Acid], for which, in series [1], the “Microsomal Stability, Percent Remaining @ 1 hour” value is listed as 95%. For the same compound, in series [2], the “Plasma Stability, Percent Remaining @ 1 hour” value came out at 100%. As to `O=C(O)c1cc(-c2cccc(-c3csc(-c4ccccc4)n3)c2)ccc1F` [Example 1, 4-Fluoro-3′-(2-phenylthiazol-4-yl)biphenyl-3-carboxylic Acid], in series [1], the “Microsomal Stability, Percent Remaining @ 1 hour” value was found to be 3%. In series [2], the “Plasma Stability, Percent Remaining @ 1 hour” value is on record as 93%. With `O=C(O)c1cc(F)cc(-c2cccc(-c3csc(-c4ccccc4)n3)c2)c1` [Example 9, 5-Fluoro-3′-(2-phenylthiazol-4-yl)biphenyl-3-carboxylic Acid], the “Microsomal Stability, Percent Remaining @ 1 hour” value in series [1] is 4%. In addition, the “Plasma Stability, Percent Remaining @ 1 hour” value in series [2] was 98%. As to `O=C(O)c1cc(-c2cccc(-c3nc(-c4ccccc4)cc(C(F)(F)F)n3)c2)ccc1F` [Example 86, 4-Fluoro-3′-(4-phenyl-6-(trifluoromethyl)pyrimidin-2-yl)biphenyl-3-carboxylic Acid], in series [1], the “Microsomal Stability, Percent Remaining @ 1 hour” value is on record as 100%. For the same compound, in series [2], the “Plasma Stability, Percent Remaining @ 1 hour” value came out at 100%. For the compound `O=C1CC(c2cccc(-c3cccnc3)c2)=Nc2ccc(Br)cc2N1` [Example 179, 8-Bromo-4-(3-(pyridin-3-yl)phenyl)-1,3-dihydro-2H-benzo[b][1,4]diazepin-2-one], the “Microsomal Stability, Percent Remaining @ 1 hour” value in series [1] is recorded as 30%. Also, the “Plasma Stability, Percent Remaining @ 1 hour” value in series [2] is recorded as 100%. With `O=C(O)c1ccc(F)c(-c2cccc(-c3nc(-c4ccoc4)cc(C(F)(F)F)n3)c2)c1` [Example 114, 6-Fluoro-3′-(4-(furan-3-yl)-6-(trifluoromethyl)pyrimidin-2-yl)biphenyl-3-carboxylic Acid], in series [1], the “Microsomal Stability, Percent Remaining @ 1 hour” value was found to be 66%. Moreover, the “Plasma Stability, Percent Remaining @ 1 hour” value in series [2] turned out to be 93%.

Turning to `O=C(O)c1ccc(F)c(-c2cccc(-c3nc(-c4ccc(C(F)(F)F)nc4)cc(C(F)(F)F)n3)c2)c1` [Example 79, 6-Fluoro-3′-(4-(trifluoromethyl)-6-(6-(trifluoromethyl)pyridin-3-yl)pyrimidin-2-yl)biphenyl-3-carboxylic Acid], the “Microsomal Stability, Percent Remaining @ 1 hour” value in series [1] is recorded as 82%. The “Plasma Stability, Percent Remaining @ 1 hour” value in series [2] is 86%. Turning to `O=C(O)c1cc(-c2cccc(-c3nc(-c4ccsc4)cc(C(F)(F)F)n3)c2)ccc1F` [Example 122, 4-Fluoro-3′-(4-(thiophen-3-yl)-6-(trifluoromethyl)pyrimidin-2-yl)-[1,1′-biphenyl]-3-carboxylic Acid], in series [1], the “Microsomal Stability, Percent Remaining @ 1 hour” value amounted to 83%. Further, the “Plasma Stability, Percent Remaining @ 1 hour” value in series [2] came to 83%.

The EC50 is the midpoint of the concentration-response curve.

The values are drawn from patent publication US10597367B2, “Metabotropic glutamate receptor negative allosteric modulators (NAMs) and uses thereof” (Sanford Burnham Prebys Medical Discovery Institute, priority 2014, dated 2020).
